“Also recorded” adds a separate entry of the source.
Experiments:
Hela cells [1] = assay: Confocal microscopy of nuclei size; type: cell-based; settings: 20 μM, 48 hours, DAPI staining
Experimental: (§1) BrdU incorporation rates were determined by Millipore™ BrdU incorporation kit (CAT #2750). (b-c) Hela cells were treated with vehicle or 20 μM of Top60 for 48 hours. Cells were then stained with APC-BrdU and 7-AAD for 4 hours, and subjected to FACS assays to determine cell populations at Sub G0/G1, G0/G1, S, and G2/M phases. Results were collected from three independent experiments, (d-e) Hela cells were treated with either vehicle or 20 μM T60 for 48 hours. Cells were fixed and co-stained with DAPI and phalloidin, and examined by confocal microscopy. Fifty cells were chosen from five high power fields to analyze nuclei sizes by the Image J software. Representative bright field microscopic images were also shown. Scale bar=50 μm.
Confocal microscopy—Cells were fixed with 4% paraformaldehyde, treated in 0.25% Triton X-100 for 15 mins, incubated with F-actin conjugated to Phalloidin-iFluor 488™ (Abeam™; Cambridge, UK), and mounted with DAPI staining mount (Vector Labs™; Burlingame, Calif., USA). Cells were then imaged by confocal microscopy at 63× magnification (Zeiss LSM 780™; Carl Zeiss AG™; Oberkochen, Germany).

K562 cells = assay: MTS cell proliferation assay; type: cell-based; settings: 0-20 μM 48 hours, 20 μM 0-72 hours, listed as Top60
Experimental: Cytotoxicity was evaluated by measuring LDH levels from cell culture media; (b) K562 cells were treated with either vehicle or 10-20 μM of Top60, Etoposide and ICRF187 for 4 hours. Whole cell lyses were collected to measure γH2AX levels with vinculin as the loading control; (c) K562 cells were treated with 0, 1, 5, 10, 15 and 20 μM of Top60, 20 μM Etoposide or 20 uM ICRF187 for 48 hours. Cell proliferation rates were determined by MTS assays; and (d) K562 cells were treated with 20 μM of Top60, Etoposide or ICRF187 for 0, 24, 48 and 72 hours. Cell proliferation rates were measured by MTS assays. All results were collected from three independent experiments.
(§2) BrDU incorporation and cell proliferation assays—Cell proliferation rates were measured by using the CellTitre™ 96 AqueousOne™ kit (Promega™) and bromodeoxyuridine (BrdU) assay kit (Millipore™) according to the manufacturer's protocol, with minor modifications as we have previously described by Li H. et al.^19

[2] = test system: Etoposide-resistant K562 cell line; assay: MTS cell proliferation assay in Etoposide-resistant cells; type: cell-based; settings: 0-20 μM, 48 hours; cells with downregulated Topo II
Experimental: (§3) Whole cell lyses were collected and used to measure protein levels of TOP2α, TOP2β with β-Actin as a loading control; (b) K562 cells were treated with 0, 1, and 10 μM of Top60 for 24 hours. Protein lyses were collected from soluble nuclear extract, chromatin fraction or whole cell lysate. TOP2α and TOP2β protein levels were determined by immunoblotting with Lamin A/C, Histone H3 and β-Actin as loading controls; and (c) Etoposide-resistant K562 cell line was established by treating cells with 0.5 μM of Etoposide for 6 months. TOP2α, TOP2β, and β-actin protein levels were determined by immunoblotting. Etoposide-resistant K562 cells were treated with 0, 1, 10, 15 and 20 μM of Top60, Etoposide or ICRF187 for 48 hours. Cell proliferation rates were determined by MTS assays.
In order to asses binding of the lead compound to Topo II, a thermal shift assay was performed. […] It was observed that Topo IIα was stabilized up to 43° C. in the presence of the lead compound (FIG. 4A). Furthermore, cellular fractionation was performed to assess localized changes in Topo II in response to compound treatment. As Topo IIα is important for decatenating DNA during cellular replication, it is expected to be chromatin bound. […] To further verily that Topo II is the only observable target of Top60, Etoposide resistant cell lines were bred. […]

Hela cells [3] = assay: BrdU incorporation assay; type: cell-based; settings: 20 μM, 48 hours, listed as Top60
Experimental: as §1, §2

Topo IIα = Topo IIα (Homo sapiens, UniProt P11388); assay: Thermal shift assay in cells; type: binding; design: endogenous in cells; host or cells: K562; settings: K562 cells, 20 μM
Experimental: as §3
Thermal shift and chromatin fraction assays—In the thermal shift assays, cells were treated with vehicle or compound #60 (Top60) for 1 hour, split into equal aliquots to be heated at 37 to 46 degrees in a PCR machine. Protein lyses were collected to perform immunoblotting assays with Topo II antibodies. In the chromatin fraction assays, cells were treated with vehicle or compound #60 (Top60). Both soluble and chromatin associated proteins were fractioned following the protocol described by Wysocka J et al.^18. Protein lyses were collected to perform immunoblotting assays with Topo II antibodies. […]

Topoisomerase II = target: T1, Topoisomerase II (Homo sapiens, UniProt P11388); assay: Topoisomerase II inhibition screening (supercoiled plasmid relaxation, then kDNA decatenation); type: biochemical; design: key to TOP2 Inhib.: Y is an indication that activity was found
T1 construct: purchased TopoGENE (TopoGEN) TG2000H / kit TG1001
Experimental: In vitro Topo II activity assays—K-DNA decatenation assays were performed using the human Topo II assay kit (TG1001, TopoGENE™) with Etoposide and ICRF193 as poison and catalytic inhibitors respectively. DNA relaxation assays were performed by incubating the supercoiled pHOT™ plasmid with human Topo IIα (TG2000H™, TopoGENE™) at 37 degrees for one hour. Reactions were stopped by adding 10% SDS, EDTA and proteinase K. Plasmid DNAs were separated on DNA agarose gel and stained with ethidium bromide for visualization.
Medium Throughput Screening Assays A supercoiled plasmid relaxation assay was used as a first, course filter to determine candidate small molecules. Small molecule candidates that were sufficiently active in the first round screening were then subject to the kDNA decatenation assay.
Second Round Screening With the discovered active compounds 19 and 23, a new screen was initiated to look for similar molecules. For this, the shape similarity screening program ROCS™^10 was used The compounds chosen for the ROCS™ search was based on the docking conformation of Compound 23. The ZINC-15 library filtered down to 6 million molecules described previously was used for this screening. The top 62 molecules were hand-picked based on their ROCS™ similarity as well as their docking scores. These molecules were ordered and tested with the same medium throughput assays previously described. A large enrichment in the proportion of active molecules was observed, of close to 10-fold relative to the first round, validating the virtual screening pipeline.

Hela cells [4] = assay: FACS cell cycle assay; type: cell-based; settings: 20 μM, 48 hours
Experimental: as §1
FACS assays—Cell cycling was assessed by using BrdU incorporation into S-phase DNA through using the APC BrdU flow kit (BD Pharmingen™; Franklin Lakes, N.J., USA) according to manufacturer's protocol. Briefly, 1 mM of BrdU was added to cells and incubated for 6 hours. Cells were incubated with anti-BrdU antibody and stained with 7-AAD before processing the cells for flow cytometry.

T1 sequence (P11388 whole entry): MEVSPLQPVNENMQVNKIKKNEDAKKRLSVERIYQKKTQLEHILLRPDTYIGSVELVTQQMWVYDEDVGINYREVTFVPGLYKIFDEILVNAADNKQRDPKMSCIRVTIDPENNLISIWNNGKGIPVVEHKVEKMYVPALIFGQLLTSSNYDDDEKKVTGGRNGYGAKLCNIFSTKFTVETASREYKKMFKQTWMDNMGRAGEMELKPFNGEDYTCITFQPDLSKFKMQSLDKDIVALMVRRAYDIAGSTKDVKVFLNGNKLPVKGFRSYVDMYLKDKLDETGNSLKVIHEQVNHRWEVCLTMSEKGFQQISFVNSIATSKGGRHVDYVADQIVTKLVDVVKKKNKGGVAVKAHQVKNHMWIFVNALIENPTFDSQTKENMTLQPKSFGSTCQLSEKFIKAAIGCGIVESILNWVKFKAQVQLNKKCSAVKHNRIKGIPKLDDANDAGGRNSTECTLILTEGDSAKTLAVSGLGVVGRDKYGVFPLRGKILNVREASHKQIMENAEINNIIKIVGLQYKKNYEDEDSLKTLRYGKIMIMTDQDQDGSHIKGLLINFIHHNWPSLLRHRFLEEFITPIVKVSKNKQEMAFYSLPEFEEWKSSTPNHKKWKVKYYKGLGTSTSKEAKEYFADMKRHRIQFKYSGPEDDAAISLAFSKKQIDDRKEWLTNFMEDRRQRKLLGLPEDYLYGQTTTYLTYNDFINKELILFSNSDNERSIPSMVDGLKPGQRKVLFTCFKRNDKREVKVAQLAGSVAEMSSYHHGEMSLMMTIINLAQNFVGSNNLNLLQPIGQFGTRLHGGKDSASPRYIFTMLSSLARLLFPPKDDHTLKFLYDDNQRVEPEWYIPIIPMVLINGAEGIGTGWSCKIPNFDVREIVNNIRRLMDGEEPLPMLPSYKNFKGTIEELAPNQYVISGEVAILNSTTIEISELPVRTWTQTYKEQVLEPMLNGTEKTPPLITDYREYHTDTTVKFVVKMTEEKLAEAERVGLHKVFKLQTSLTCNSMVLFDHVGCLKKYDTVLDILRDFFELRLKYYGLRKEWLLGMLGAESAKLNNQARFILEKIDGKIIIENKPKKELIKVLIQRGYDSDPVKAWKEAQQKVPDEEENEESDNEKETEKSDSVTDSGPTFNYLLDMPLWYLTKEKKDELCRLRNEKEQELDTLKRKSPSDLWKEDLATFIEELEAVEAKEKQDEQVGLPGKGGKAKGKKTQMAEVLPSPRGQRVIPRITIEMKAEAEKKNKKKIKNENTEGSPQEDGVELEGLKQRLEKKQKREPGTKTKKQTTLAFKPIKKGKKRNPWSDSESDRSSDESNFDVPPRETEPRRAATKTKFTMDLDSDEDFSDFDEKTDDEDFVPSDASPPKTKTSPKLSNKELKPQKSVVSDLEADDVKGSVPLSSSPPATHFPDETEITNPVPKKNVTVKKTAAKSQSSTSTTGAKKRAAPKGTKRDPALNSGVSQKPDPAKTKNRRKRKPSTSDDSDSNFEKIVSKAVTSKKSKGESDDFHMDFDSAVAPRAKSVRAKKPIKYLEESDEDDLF
Topo IIα, sequence (P11388 whole entry): as above

temperature up to which Topo IIα was stabilized (Topo IIα): up to 43 °C
TOP2 Inhib. (Topoisomerase II): Y
IC50 of Topo II inhibition (Topoisomerase II; assay not specified): nanomolar
relative activity among compounds tested in the screening round (Topoisomerase II; medium throughput relaxation and kDNA decatenation assays): most active of the group
Topoisomerase II inhibitory activity (Topoisomerase II; result in words): inhibits TOP2 activity
Compound: O=C(Nc1ccc(Nc2ccccc2)cc1)c1ccc[nH]c1=S [Compound 60]
nuclei size (Hela cells [1]): enlarged nuclei
cell proliferation (MTS) (K562 cells): strong inhibitory effects; also recorded: inhibits cell proliferation
inhibitory effects on Etoposide resistant cells [2]: dramatically reduced
cellular replication (BrdU incorporation) (Hela cells [3]): Decreased cellular replication; also recorded: inhibits DNA synthesis at S phase
inhibitory activity against Topo II compared with ICRF-193 (Topoisomerase II): more potent inhibitory activity against Topo II than ICRF-193
cell population in G2/M (Hela cells [4]): increased cell population in G2/M
cell population in S-phase (Hela cells [4]): large cell population delayed in S-phase

Reference: patent publication US20210379077A1, “TOPOISOMERASE II CATALYTIC INHIBITOR COMPOUND THERAPEUTICS FOR CANCER TREATMENT, METHODS AND USES” (The University of British Columbia, priority 2018, published 2021)
